Test results as given in paper PMC7483518, “Destabilizing single chain major histocompatibility complex class I protein for repurposed enterokinase proteolysis” (Scientific Reports, 2020).
Where “and” joins values, the source holds several entries; their conditions need not be identical. Equal values may be shown once. Read-outs that look alike come from different tables or passages of the source.

How the values were obtained:
[1] = molecular target: photolabile unchained HLA-A*11:01 pMHC-I protein (Homo sapiens, UniProt P04439, A114D/D185E/E176A/F33Y/L180Q/S129P/T187R); assay: ELISA with photolabile unchained pMHC-I protein and UV irradiation; format: binding
[2] = test system: HLA-A*11:01 single chain protein; format: biochemical, Human; parameters: EZ50kDa / EZ50kD (pH 6.2) / EZ50kD (pH 8) / EZ50kD (normalised: EBV1101 = 1, EBV0201 = 0) / EZ50kDa rank: unit not given beside the values; conditions: for EZ50kDa: Table 3, EGFR peptide library (n = 177, duplicated), 14 h;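 on EZ50kD (pH 6.2): scaled with positive control peptide as 1 and negative control peptide as 0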;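 on EZ50kDa: intact 50 kDa band volume scaled with positive control peptide as 1 and negative as 0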
[3] = EASY MHC-I A*11:01, gel 2019-07-23 lr1037_1045_5min, replicate 1 (first lane set)
[4] = EASY MHC-I A*11:01, gel 2019-07-23 lr1037_1045_5min, replicate 2 (second lane set)
[5] = EASY MHC-I A*11:01, 2019-07-25, mean of the 2 replicates
[6] = EASY MHC-I A*11:01, 2019-07-26, mean of the 2 replicates
[7] = EASY MHC-I A*11:01, 2019-08-01, mean of the 2 replicates
[8] = EASY MHC-I A*11:01, run 2019-08-06, 5min, mean of 2 replicates
[9] = EASY MHC-I A*11:01, run 2019-08-07, 5min, mean of 2 replicates
[10] = EASY MHC-I A*11:01, run 2019-08-08, 5min, mean of 2 replicates
[11] = EASY MHC-I A*11:01, gel 2019-07-17 lr1028-1036 5min, mean of 2 replicates
[12] = EASY MHC-I A*11:01, gel 2019-07-17 lr1028-1036 5min, replicate 1 (lanes 1-14)
[13] = EASY MHC-I A*11:01, gel 2019-07-17 lr1028-1036 5min, replicate 2 (lanes 15-28)
[14] = pH 6.2, 37 °C, enterokinase, Eq. (4)

Sequence	EZ_mean [2]	EASY_mean ([1]; […], mean, STDEV)	EASY_mean [1]	further results
GRAKLLGA [LR1007]	-0.06438	–	–	EASY_mean ([1]; ELISA signal, mean, […]): -0.02108
GRAKLLGAE [LR1016]	-0.03777	–	–	EASY_mean ([1]; ELISA signal, mean, […]): -0.02066
GRAKLLGAEE [LR1026]	-0.04989	-0.01509	–	–
GRAKLLGAEEK [LR1037]	–	–	0.0001747	EZ_mean ([2]; EASY MHC-I A*11:01, gel 2019-07-23 lr1037_1045_5min, mean of 2 replicates): -0.05993; EZ50kD (normalised: EBV1101 = 1, EBV0201 = 0) [2, 3]: -0.04549; Norm (50 kDa band adj. volume normalised: Undig_37C = 1, Dig_37C = 0) [2, 3]: -0.01318; EZ50kD (normalised: EBV1101 = 1, EBV0201 = 0) [2, 4]: -0.07437; Norm (50 kDa band adj. volume normalised: Undig_37C = 1, Dig_37C = 0) [2, 4]: 0.01353
GRAKLLGAEEKE [LR1049]	-0.05058	–	-0.01715	–
GSLLDYVR [CS1007]	-0.06759	–	-0.02696	–
GSLLDYVRE [CS1016]	-0.06376	–	-0.02695	–
ICLTSTVQLIM [TM1028]	-0.09759	-0.04901	–	–
ICLTSTVQLIMQ [TM1039]	-0.1704	–	–	EASY_mean ([1]; ELISA signal, mean, […]): -0.09515
IKTSPKAN [EX1002]	-0.02894	–	-0.005748	–
IKTSPKANK [EX1007]	–	-0.0128	–	EZ_mean [2, 5]: -0.05095
IKTSPKANKE [EX1013]	–	-0.007577	–	EZ_mean [2, 5]: -0.04249
IKTSPKANKEI [EX1020]	–	–	–	EASY_mean ([1]; ELISA signal, mean, […]): -0.02309; EZ_mean [2, 6]: -0.1313
IKTSPKANKEIL [EX1028]	–	–	-0.02595	EZ_mean [2, 7]: -0.1371
IMQLMPFG [TM1007]	–	–	–	EASY_mean ([1]; ELISA signal, mean, […]): -0.02903; EZ_mean [2, 8]: -0.09302
IMQLMPFGC [TM1016]	–	-0.02516	–	EZ_mean [2, 9]: -0.08902
IMQLMPFGCL [TM1026]	–	–	–	EASY_mean ([1]; ELISA signal, mean, […]): -0.02435; EZ_mean [2, 10]: -0.06176; Norm_mean [2, 10]: -0.05556
IMQLMPFGCLL [TM1037]	-0.1199	–	–	EASY_mean ([1]; ELISA signal, mean, […]): -0.05375
IMQLMPFGCLLD [TM1049]	-0.08186	–	-0.01469	–
IPVAIKTSPKA [EX1016]	–	-0.002293	–	EZ_mean [2, 6]: -0.1024

Sequence	EZ_mean [2]	EASY_mean ([1]; […], mean, STDEV)	EASY_mean [1]	further results
IPVAIKTSPKAN [EX1024]	–	–	-0.02211	EZ_mean [2, 7]: -0.1301
ITDFGRAKLL [LR1022]	-0.0609	-0.02159	–	–
ITDFGRAKLLG [LR1033]	–	–	-0.04357	EZ_mean [2, 11]: -0.04472; EZ50kD (normalised: EBV1101 = 1, EBV0201 = 0) [2, 12]: -0.05531; Norm (50 kDa band adj. volume normalised: Undig_37C = 1, Dig_37C = 0) [2, 12]: -0.05765; EZ50kD (normalised: EBV1101 = 1, EBV0201 = 0) [2, 13]: -0.03414; Norm (50 kDa band adj. volume normalised: Undig_37C = 1, Dig_37C = 0) [2, 13]: -0.02949
ITDFGRAKLLGA [LR1045]	-0.0656	–	-0.00307	–
ITQLMPFGS [CS1009]	-0.06498	–	-0.02581	–
ITQLMPFGSL [CS1019]	-0.0702	–	-0.007918	–
ITQLMPFGSLLD [CS1042]	-0.03951	–	-0.01907	–
KIPVAIKTSPKA [EX1023]	–	–	-0.01234	EZ_mean [2, 7]: -0.1135
KITDFGRA [LR1002]	-0.03733	-0.007222	–	–
KITDFGRAKL [LR1021]	-0.05252	-0.0154	–	–
KITDFGRAKLL [LR1032]	–	–	0.009234	EZ_mean [2, 11]: 0.03523; EZ50kD (normalised: EBV1101 = 1, EBV0201 = 0) [2, 12]: 0.01844; Norm (50 kDa band adj. volume normalised: Undig_37C = 1, Dig_37C = 0) [2, 12]: -0.01259; EZ50kD (normalised: EBV1101 = 1, EBV0201 = 0) [2, 13]: 0.05201; Norm (50 kDa band adj. volume normalised: Undig_37C = 1, Dig_37C = 0) [2, 13]: 0.03105; EZ50kDa [2, 14]: 0.0352 ± 0.024
KITDFGRAKLLG [LR1044]	0.1681	–	0.1191	EZ50kD (normalised: EBV1101 = 1, EBV0201 = 0) [2]: 0.1471 and 0.1891; Norm (50 kDa band adj. volume normalised: Undig_37C = 1, Dig_37C = 0) [2]: 0.1017 and 0.1364; EZ50kDa [2, 14]: 0.2 and 0.168 ± 0.030
KTSPKANK [EX1003, EGFR exon 19 deletion-derived peptide]	0.03406	–	0.02773	EZ50kDa [2, 14]: 0.0341 ± 0.022
KTSPKANKE [EX1008]	–	-0.00166	–	EZ_mean [2, 5]: -0.03131
KTSPKANKEI [EX1014]	–	-0.002118	–	EZ_mean [2, 6]: -0.1022
KTSPKANKEIL [EX1021]	–	-0.001833	–	EZ_mean [2, 6]: -0.102
KTSPKANKEILD [EX1029]	–	–	-0.02661	EZ_mean [2, 7]: -0.1385
LIMQLMPF [TM1006]	–	-0.03127	–	EZ_mean [2, 8]: -0.09815
LIMQLMPFG [TM1015]	–	-0.03975	–	EZ_mean [2, 9]: -0.1155
LIMQLMPFGC [TM1025]	–	–	–	EASY_mean ([1]; ELISA signal, mean, […]): -0.02724; EZ_mean [2, 10]: -0.05365; Norm_mean [2, 10]: -0.04493

Sequence	EZ_mean [2]	EASY_mean ([1]; […], mean, STDEV)	EASY_mean [1]	further results
LIMQLMPFGCL [TM1036]	-0.1248	–	–	EASY_mean ([1]; ELISA signal, mean, […]): -0.07162
LIMQLMPFGCLL [TM1048]	-0.1103	–	-0.04956	–
LITQLMPFGS [CS1018]	-0.05783	–	0.007236	–
LITQLMPFGSL [CS1029]	-0.07478	–	-0.02804	–
LMPFGSLL [CS1003]	-0.06827	–	0.002317	–
LMPFGSLLD [CS1012, probably meant CS1032]	-0.06046	–	-0.02081	EZ MHC-I stability with HLA-A*11:01 single chain protein ([2]; Fig. 2f,g, EGFR peptide library): strongly stabilizing
LMPFGSLLDY [CS1022]	-0.05808	–	0.006828	–
LMPFGSLLDYV [CS1033]	-0.06309	–	-0.01373	–
LTSTVQLIM [TM1009]	–	-0.03424	–	EZ_mean [2, 8]: -0.1009
LTSTVQLIMQ [TM1019]	–	-0.02206	–	EZ_mean [2, 10]: -0.0385; Norm_mean [2, 10]: -0.02611
LTSTVQLIMQL [TM1030]	-0.07795	-0.03337	–	–
LTSTVQLIMQLM [TM1041]	-0.1142	-0.04948	–	–
MPFGSLLD [CS1004]	-0.07336	–	-0.003998	–
MPFGSLLDY [CS1013]	-0.0684	–	-0.03532	–
MPFGSLLDYV [CS1023]	-0.04531	–	0.02198	–
MPLGSLLDYVR [CS1034]	-0.06141	–	-0.006346	–
MQLMPFGC [TM1008]	–	–	–	EASY_mean ([1]; ELISA signal, mean, […]): -0.0333; EZ_mean [2, 8]: -0.09972
MQLMPFGCL [TM1017]	–	-0.03322	–	EZ_mean [2, 9]: -0.1037
MQLMPFGCLLD [TM1038]	-0.125	–	–	EASY_mean ([1]; ELISA signal, mean, […]): -0.0584
NTLEQTVKK [reference compound]	–	–	–	ELISA450nm ([1]; Table 2, 62.5 nM photolabile pMHC-I mixture, 5 μM peptide in PBS, UV 365 nm 2 × 5 min on ice, 2 h room temperature on anti-β2m plate, Abs450nm − Abs570nm, instability cutoff < 0.6): 1.631; EZ50kD (pH 6.2) ([2]; Table 2, pH 6.2, 37 °C, enterokinase, Eq. (4), instability cutoff < 0.3): 0.5647
